Laboratory results as given in patent publication US11560385B2, “Proteasome activity enhancing compounds” (Proteostasis Therapeutics, Inc., priority 2018, dated 2023).

Biological target: USP14 (Homo sapiens (Human), UniProt P54578)
Test: Usp14 inhibition assay (Example 5A, A-series compounds)
Type: biochemical
Conditions: average value from a minimum of two experimental determinations; read-out: Usp14 IC50 Category
Text: Example 5A: Usp14 Inhibition Assay
The IC50 values in the Table below represent the average value from a minimum of two experimental determinations.

USP14, sequence (P54578 whole entry, looked up): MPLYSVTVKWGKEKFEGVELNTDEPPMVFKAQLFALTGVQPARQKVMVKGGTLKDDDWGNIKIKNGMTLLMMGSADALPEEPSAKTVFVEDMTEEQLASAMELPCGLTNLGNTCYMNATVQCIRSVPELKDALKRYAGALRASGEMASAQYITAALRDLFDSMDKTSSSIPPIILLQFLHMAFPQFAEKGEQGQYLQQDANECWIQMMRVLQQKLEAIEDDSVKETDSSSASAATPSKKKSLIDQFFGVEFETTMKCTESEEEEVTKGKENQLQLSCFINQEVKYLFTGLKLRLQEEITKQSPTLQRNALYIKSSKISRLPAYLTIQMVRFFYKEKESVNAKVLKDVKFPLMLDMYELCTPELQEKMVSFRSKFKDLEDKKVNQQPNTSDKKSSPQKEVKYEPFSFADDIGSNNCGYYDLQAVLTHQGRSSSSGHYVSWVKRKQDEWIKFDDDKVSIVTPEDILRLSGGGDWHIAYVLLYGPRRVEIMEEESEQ

Q: With Cc1c(C(=O)CN2C3CCC2CC3)c2ccc(CCC#N)cc2n1-c1ccc(Cl)cc1 [Example 8A, 3-(3-(2-(7-Azabicyclo[2.2.1]heptan-7-yl)acetyl)-1-(4-chlorophenyl)-2-methyl-1H-indol-6-yl)propanenitrile] as the compound, how does the IC50 read?
A: < 50 nM

Q: How did the IC50 turn out when Cc1c(C(=O)CN2C3CCC2CC3)c2ccc(CC3COC3)cc2n1-c1ccc(Cl)cc1 [Example 11A, 2-(7-Azabicyclo[2.2.1]heptan-7-yl)-1-(1-(4-chlorophenyl)-2-methyl-6-(oxetan-3-ylmethyl)-1H-indol-3-yl)ethan-1-one] was run?
A: < 50 nM
